US12721881B2, “Endostatin peptides for the treatment of tumors, fibrosis and acute lung injury” (MUSC Foundation for Research Development, priority 2019, dated 2026)
Where no end group is shown, it is not given here. The star is where a group is joined. Biotin = O=C1N[C@H]2[C@H](CS[C@H]2CCCCC(=O)*)N1

What was measured:
[1] = system: mc-38 colon adenocarcinoma tumor cells; assay: mc-38 colon adenocarcinoma tumor growth in mice, oral gavage; type: in vivo; details: 100 μg/mouse oral gavage twice/week; for mean rate of increase in the tumor volume at day 21: PBS control 151.1 mm^3 per day; for mean tumor volume at day 21 (model-based estimate): PBS control 1492.1 mm^3
Description: (§1) For each of the experiments, descriptive statistics (means and standard deviations) for tumor volumes were calculated over time for each experimental group (i.e. Experiment 1: Control vs. BioE4 (FIG. 1); Experiment 2: PBS, Bio96, and BioE4-03 (FIG. 5)). Since tumor growth tends to be curvilinear, general linear mixed models (GLMMs) were created to estimate treatment-specific growth curves over time and to make comparisons between the peptide treatments and control. Separate GLMMs were constructed for each experiment, and each GLMM included random effects for each mouse, to control for the fact that the repeated volume measurements within a given mouse were correlated with one another. Tumor volume served as the dependent variable in each model, while time (in days), […], treatment x time, and treatment x time^2 were included as independent variables. Using these models, the estimated mean tumor volumes at specific selected time points and the mean rate of change in the tumor volumes at specific selected time points were compared. If a mouse's tumor grew too large, it was sacrificed; however, all tumor volumes measured prior to sacrifice were included in the modeling process. SAS v9.4 (SAS Institute, Cary, NC) was used for all analyses. All hypothesis tests were 2-sided, and p-values <0.05 were considered statistically significant.
sMIC tolerant transgenic (MB481 strain) mice (Liu et al, Perturbation of NK cell peripheral homeostasis accelerates prostate carcinoma metastasis. J. Clin. Invest. 123:4410, 2013) were injected with 1×10^5 mc-38 colon adenocarcinoma tumor cells via subcutaneous injection When tumor size reached approximately 75 mm^3, treatment was started. start treatment at four group. Bio96 100 μg/mouse, BioE4-03 100 μg/mouse, were given via oral gavage in a volume of 100 μl. PBS (100 μl) was given as a vehicle control. Peptides and vehicle were administered twice/week. Tumor volume was measured 3 times per week.
Direct comparisons were made between the PBS control and Bio96 and between PBS and BioE4-03 with respect to the mean tumor volumes at Day 21 and the mean rate of change in the tumor volumes at Day 21 (FIG. 5 through FIG. 7).

tumors = assay: Histologic analysis of tumors (H & E, Masson Trichrome); type: in vivo, mouse; details: for collagen bundles in the tumors (Masson Trichrome stain): compared to tumors from vehicle treated mice
Description: Histological analysis of tumors treated with vehicle alone, or with BioE4-03 or Bio96 peptides was performed.

skin tissues from donors = assay: Gene expression in donor skin tissues with TGFbeta-induced fibrosis; type: cell-based, human; details: skin tissue
Text: BioE4-03 further reduces Col1A1 and fibronectin (FN) gene expression in skin tissues from donors in which fibrosis was induced with TGFbeta (FIG. 25).

[2] = system: HCT116T cells (human colon carcinoma cells); assay: Gene expression in HCT116T cells by real-time PCR; type: cell-based; details: 10 μg/ml, 48 hours
Description: (§2) The expression of several genes implicated in tumorigenesis, angiogenesis and cancer stem cell renewal was measured in a variety of tumor types and organs.
Tumor cells were treated with 10 μg/ml BioE4-03 for 48 hours. RNA was extracted and analyzed by real-time PCR. N=3-4 independent experiments (except for uPAR where n=2).

[3] = system: lung tissues of patients with IPF; assay: Hydroxyproline in lung tissues of patients with IPF in organ culture; type: cell-based, human; details: IPF lung tissue, organ culture 72 hours
[4] = system: fibroblasts from lungs of patients with IPF; assay: Gene expression in fibroblasts from lungs of patients with idiopathic pulmonary fibrosis (IPF); type: cell-based, human; details: IPF lung fibroblasts
[5] = system: A549 cells (human lung adenocarcinoma cells); assay: Gene expression in A549 cells by real-time PCR; type: cell-based; details: A549, 10 μg/ml, 48 hours
Description: as §2
Tumor cells were treated with 10 μg/ml BioE4-03 for 48 hours. RNA was extracted and analyzed by real-time PCR. N=6-8 independent experiments. Statistical analysis was done using the paired t-test.

[6] = system: fibroblasts from lungs of patients with SSc; assay: Gene expression in fibroblasts from lungs of patients with systemic sclerosis (SSc); type: cell-based, human; details: SSc lung fibroblasts
Description: […] RNA was extracted and levels of alpha smooth muscle actin (SMA) measured by qRT-PCR.
SSc fibroblasts were treated with 10 μg/ml BioE4-03 for 72 hours. RNA was extracted and used to measure SMA and Collagen 1A2.

[7] = system: human lung adenocarcinoma cells (A549); assay: IL-6 mRNA by qPCR in A549 cells; type: cell-based; details: A549, 48 hours, relative to vehicle controls
Description: (§3) IL-6 mRNA levels were measured via qPCR in human lung adenocarcinoma cells (A549) treated for 48 hours with BioE4-03 peptide. […] For comparison, a parallel experiment was done using non-biotinylated E4-03. […] Additionally, IL-6 protein levels in the supernatant of A549 cells were measured by ELISA after 72 hours of treatment with E4-03 peptide.

[8] = system: lung tissues of normal donors; assay: Lung tissues of normal donors in organ culture after induction of fibrosis with TGFbeta; type: cell-based, human; details: normal donor lung tissue; for hydroxyproline levels: fibrosis induced with TGFbeta
[9] = system: lung tissues of patients with SSc; assay: Hydroxyproline in lung tissues of patients with SSc in organ culture; type: cell-based, human; details: SSc lung tissue, organ culture 72 hours
[10] = system: TRAMP C-2 mouse prostate tumor cells; details: C57BL6 mice, 50 μg/dose oral gavage twice per week, day 15, vs water vehicle
Description: as §1

[11] = system: systemic sclerosis pulmonary fibrosis lung tissues; assay: MMP-1 induction in systemic sclerosis pulmonary fibrosis lung tissues in organ culture; type: cell-based, human; details: 10 μg/ml, TGFbeta, 120 hrs
Description: Systemic sclerosis pulmonary fibrosis lung tissues were divided into equal size cores. Lung tissues in organ culture were treated with different peptide fragments derived from endostatin at a final concentration of 10 μg/ml in the presence of TGFbeta for 120 hrs. The induction of matrix metalloprotease (MMP)-1 (also known as collagenase) in media conditioned by the lung tissues was examined as a measure of the ability of the peptide to reduce fibrosis and promote extracellular matrix degradation.

[12] = system: fibroblasts from lung tissues of normal donors; assay: Alpha smooth muscle actin qRT-PCR in TGFbeta-treated fibroblasts from lung tissues of normal donors; type: cell-based, human; details: 48 hours
Description: Fibroblasts were treated with TGFbeta with or without peptide Bio96-17 for 48 hours. RNA was extracted and levels of alpha smooth muscle actin (SMA) measured by qRT-PCR.

normal lung fibroblasts [13] = assay: Extracellular matrix proteins in TGFbeta-treated normal lung fibroblasts, immunoblotting; type: cell-based, human; details: 10 μg/ml peptide
Description: Normal lung fibroblasts were treated with vehicle as control (VC) or TGFbeta (T) in the presence or absence of 10 μg/ml of various peptide fragments. The extracellular matrix proteins, Collagen 1A1 and fibronectin (FN) were assessed using immunoblotting.

normal lung fibroblasts [14] = assay: Fibronectin in supernatants of TGFbeta-treated normal lung fibroblasts; type: cell-based, human; details: 10 μg/ml to 80 μg/ml, 72 hours
Description: Normal lung fibroblasts were treated with TGFbeta without or with increasing concentrations for 96-87. Supernatants were assessed for fibronectin levels after 72 hours of treatment. 96-87 had no effect on TGFbeta-induced FN production, even with increasing concentration from 10 μg/ml to 80 μg/ml (FIG. 18).

[15] = system: human lung adenocarcinoma cells (A549); assay: IL-6 protein by ELISA in supernatant of A549 cells; type: cell-based; details: A549, 72 hours, relative to vehicle controls
Description: as §3

Biotin-NH2-ATGQASSLL-CONH2 (Biotin-ATGQASSLL-NH2; SMILES CC(C)C[C@H](NC(=O)[C@H](CC(C)C)NC(=O)[C@H](CO)NC(=O)[C@H](CO)NC(=O)[C@H](C)NC(=O)[C@H](CCC(N)=O)NC(=O)CNC(=O)[C@@H](NC(=O)[C@H](C)NC(=O)CCCC[C@@H]1SC[C@@H]2NC(=O)N[C@@H]21)[C@@H](C)O)C(N)=O) [Bio96]
mean rate of increase in the tumor volume at day 21 [1]: 90.6 mm^3 per day | mean tumor volume at day 21 (model-based estimate) [1]: 871.4 mm^3 | collagen bundles in the tumors (Masson Trichrome stain) (tumors): thinner collagen bundles | tumor cell arrangement (H & E) (tumors; tumors from treated mice): looser cell arrangement

Biotin-NH2-SYCETWRTEAPSATGQASSLLGGRLLGQSAASCHHA-CONH2 [BioE4-03]
Col1A1 gene expression (skin tissues from donors): reduces | fibronectin (FN) gene expression (skin tissues from donors): reduces | mean rate of increase in the tumor volume at day 21 [1]: 76.0 mm^3 per day | mean tumor volume at day 21 (model-based estimate) [1]: 767.7 mm^3 | Expression of IL-6 [2]: significantly reduced | Expression of PAI-I [2]: significantly reduced | Expression of PDGF-A [2]: significantly reduced | Expression of VEGF-A [2]: significantly reduced | Expression of uPA [2]: significantly reduced | Expression of uPAR ([2]; n=2): significantly reduced | hydroxyproline levels [3]: significant reduction | Coll1A2 levels [4]: trend towards decrease | SMA levels [4]: trend towards decrease | Expression of IL-6 [5]: significantly reduced | Expression of LOX [5]: significantly reduced | Expression of PAI-I [5]: significantly reduced | Expression of PDGF-A [5]: significantly reduced | Expression of VEGF-A [5]: significantly reduced | Expression of uPA [5]: significantly reduced | Expression of uPAR [5]: significantly reduced | collagen bundles in the tumors (Masson Trichrome stain) (tumors): thinner collagen bundles | tumor cell arrangement (H & E) (tumors; tumors from treated mice): looser cell arrangement | tumor necrosis (H & E) (tumors; tumors from treated mice): notable necrosis | Coll1A2 levels ([6]; 10 μg/ml, 72 hours): significant reduction | SMA levels ([6]; 10 μg/ml, 72 hours): significant reduction | expression of IL-6 mRNA [7]: significantly reduced | hydroxyproline levels [8]: significant reductions | hydroxyproline levels [9]: significant reduction

Biotin-NH2-SYCETWRTEAPSATGQASSLLGGRLLGQSAASCHHAYIVLCIENSFMT-CONH2 [BioE4]
mean rate of increase in the tumor volume on day 15, Control vs. peptide group [10]: significantly (p=0.02) greater in the Control group | mean tumor volume at day 15 (model-based estimate), Control vs. peptide group [10]: significantly (p=0.0001) greater in the Control group

SYCETWRTEAPSATGQASSLL (C-terminal endostatin-derived peptide 91-96)
MMP-1 production in media conditioned by the lung tissues [11]: no effect

Bio96-17: SEQ ID NO:4 being biotinylated at its N-terminus (Biotin-ATGQASSLLGGRLLGQSAASCHHA; not fully specified (C-terminus))
TGFbeta-induced SMA levels (qRT-PCR) [12]: significant reduction | Coll1A2 levels ([6]; Bio96-17 experiment): significant reduction | SMA levels ([6]; Bio96-17 experiment): significant reduction | secreted Col1A1 protein levels ([8]; TGFbeta, cultured 120 hours): significant reduction | hydroxyproline levels [8]: significant reductions

ATGQASSLLGGRLLGQSAASCHHA (C-terminal endostatin-derived peptide 96-17)
Col1A1 levels induced by TGFbeta (immunoblotting) (normal lung fibroblasts [13]): effective at reducing | FN levels induced by TGFbeta (immunoblotting) (normal lung fibroblasts [13]): effective at reducing | MMP-1 production in media conditioned by the lung tissues [11]: induced MMP-1 production

SYCETWRTEAPSATGQASSLLGGRLLGQ (C-terminal endostatin-derived peptide 91-97) [91-87]
MMP-1 production in media conditioned by the lung tissues [11]: no effect

ATGQASSLLGGRLLGQ (C-terminal endostatin-derived peptide 96-87)
TGFbeta-induced FN production (supernatants) (normal lung fibroblasts [14]): no effect

SYCETWRTEAPSATGQASSLLGGRLLGQSAASCHHA (C-terminal endostatin-derived peptide E4-03)
IL-6 protein levels in the supernatant [15]: significantly reduced | Col1A1 levels induced by TGFbeta (immunoblotting) (normal lung fibroblasts [13]): effective at reducing | FN levels induced by TGFbeta (immunoblotting) (normal lung fibroblasts [13]): effective at reducing | MMP-1 production in media conditioned by the lung tissues [11]: induced MMP-1 production | expression of IL-6 mRNA [7]: reduced
